In patent US20230151437A1, “USE OF PROTEIN ASSEMBLIES TO RECORD CELLULAR EVENTS” (President and Fellows of Harvard College, priority 2021, published 2023):

Key:
[1] = tested on: Tet-ON transcription system; experiment: Ticker tape recording of DOX activation of the Tet-ON system in HEK cells; type: cell-based
Protocol: FIGS. 16A-16B show recordings of impulse response of protein expression following pulsed doxycycline (DOX) activation in HEK293T cells. […] Transitions to JF669 at t=0 and to JFX608 at t=8 h provided fiducial timestamps. Transcription was activated via addition of 2 μg/mL DOX at t=−0.5 h, followed by a thorough wash at t=0 h. FIG. 16B provides three representative examples showing the GFP intensity profiles on the protein ticker tapes. Top: representative images. Bottom: fluorescence line profiles. Scale bars: […].
As the first test of a physiological recording, iPAK4 assemblies were used to report on a transcriptional activator, the tetracycline mediated Tet-ON transcription system.^28 HEK cells were co-infected with lentivirus containing CMV::iPAK4 (60%), CMV::rTTA3 (30%), CMV::HT-iPAK4 (5%), and CMV::eGFP-iPAK4 (5%) to establish tetracycline-dependent eGFP-iPAK4 expression (FIG. 4A). After assemblies had nucleated (24 h after lentiviral infection), JF552 was added to label the initial nuclei, and JF669 was added at t=0. In different dishes, doxycycline (DOX, 2 μg/mL) was added at t=2, 4, or 6 h to activate expression of eGFP-iPAK4. Then JF552 was added again at t=8 h, and the assemblies were grown for another 8-14 h before fixation and imaging (FIG. 4B).

cFos promoter = experiment: Ticker tape recording of PMA activation of cFos in neurons; type: cell-based, rat
Text: In neurons co-expressing CMV::iPAK4 (90%) and cFos::eGFP-iPAK4 (10%), assemblies initially grew with little green fluorescence. […] Sequential additions of PMA to a single dish led to distinct bands of eGFP fluorescence, clearly resolved by sharp eGFP boundaries (FIG. 5G).
To measure timing of cFos activation relative to fiducial timestamps, CMV::iPAK4 (80%), CMV::HT-iPAK4 (10%), and cFos::eGFP-iPAK4 (10%; FIG. 5E) were co-expressed. The neurons were stained with JF552, and then switched to JF669 at t=0. PMA (1 μM) was then added at t=3, 6, or 9 h, and a second fiducial timestamp was introduced by switching back to JF552 at t=12 h. Assemblies were grown until t=22 h and then fixed and imaged (FIG. 5F).
Chemical activation of neuronal activity: The cFos promoter was activated by phorbol 12-myristate 13-acetate (PMA; Sigma Aldrich P8139). Briefly, the PMA was first diluted with DMSO to form a 1 mM stock solution. At the designated time, 2 μl PMA stock was directly added to each 14 mm glass-bottom culture dish, which contained 2 ml BPNM/SM1 medium. The dishes were then stirred gently to mix the PMA and medium. After PMA addition, the dishes were returned to an incubator at 37° C. with 5% CO2.

[2] = target: T1, intracellular HT receptors (HT-NLS) (Rhodococcus rhodochrous, UniProt P0A3G2, A155T/A167V/A172T/A224E/C128F/C176G/D78G/E160K/E257K/H272N/K175M/K195N/L47V/L88M/N227D/P291S/S2A/S58T/T264A/Y273L/Y87F); experiment: Kinetics of HT dye labeling in HEK293T cells expressing HT-NLS; type: cell-based; conditions: for effective time constant of HT dye labeling: 1 μM dye, HEK293T cells; for first-order reaction rate constant of HT dye labeling: HEK293T cells expressing HT-NLS, 0.1 μM dye, combined membrane permeation and HT reaction
T1 construct: host or cells: HEK293T
T1 sequence (P0A3G2 other isoform, or with tags, fused parts or gaps with the stated changes): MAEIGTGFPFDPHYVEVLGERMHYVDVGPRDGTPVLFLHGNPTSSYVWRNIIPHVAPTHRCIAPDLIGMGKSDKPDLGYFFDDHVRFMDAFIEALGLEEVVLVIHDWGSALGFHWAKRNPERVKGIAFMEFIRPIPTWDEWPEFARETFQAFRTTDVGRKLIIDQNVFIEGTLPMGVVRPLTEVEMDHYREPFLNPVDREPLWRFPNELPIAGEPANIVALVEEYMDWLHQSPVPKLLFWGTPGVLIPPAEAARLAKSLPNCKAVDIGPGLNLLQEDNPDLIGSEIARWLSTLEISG
Protocol: FIGS. 13A-13C show kinetics of HT dye labeling and turnover in HEK293T cells. […] The sharpness of the dye transition was 7.5 min, as calculated by the width of the peak in the second derivative of fluorescence vs. position (purple). FIGS. 13B-13C show kinetics of HT dye reaction in HEK293T cells. HEK293T cells expressing a nucleus-targeted HT construct (HT-NLS, Addgene #82518) were incubated with 0.1 μM of the indicated dye (FIG. 3B) or 1 μM of the indicated dye (FIG. 3C), and nuclear fluorescence was monitored as a function of time. In FIG. 3B, HT-iPAK4 labeling experiments were performed with 10-fold higher dye concentrations (1 μM).
Dye additions appeared as upward-going kinks in the fluorescence profiles (FIGS. 12D, 13A), which were located as peaks in the second derivative of fluorescence vs. position. By dividing the transition zone widths (full-width at half-maximum of the peak in the second derivative) by the assembly-specific growth rates, a mean transition zone duration of 7.5 min was calculated (FIG. 13A). To determine whether the kinetics of HT dye labeling affected the widths of these transitions, the labeling of intracellular HT receptors was measured with several different HT dyes. These measurements probed the combined effects of membrane permeation and the HT reaction. The first-order reaction rate constants were 2.9 μM^−1 min^−1 (JF525), 0.13 μM^−1 min^−1 (JFX608), and 0.27 μM^−1 min^−1 (JF669) (FIG. 13B). […] The effective time constants at 1 μM dye were: 43 min (JF503), 3.5 min (JF525), 2.0 min (JF552), 12 min (JFX608), and 17 min (JF669) (FIGS. 13A and 13C). The precision of localizing a dye transition in an assembly is not equal to the labeling time constant, but rather the precision with which one can identify the onset of the labeling reaction. For all the JF dyes, this time was much less than 10 min.
Measurements of HT dye labeling kinetics in HEK293T cells: HEK293T cells were transfected with an inducible nuclear-localized HT protein (HT-NLS, Addgene #82518). Doxycycline (DOX, 2 μg/ml) was added 12 h after transfection to induce the expression of HT-NLS. 24 h after transfection, cells were incubated with 0.1 μM of the indicated dye, and nuclear fluorescence was monitored via wide-field epifluorescence microscopy as a function of time.

C[C@H]1c2cccc(O)c2C(=O)C2=C(O)[C@]3(O)C(=O)C(C(N)=O)=C(O)[C@@H](N(C)C)[C@@H]3[C@@H](O)[C@@H]21 [DOX, doxycycline]
duration of rise of eGFP-iPAK4 expression ([1]; 30-minute pulse of DOX): approximately 8 h | window of protein expression ([1]; 30-minute pulse of DOX): ~14 h | offset between DOX addition and start of the green stripe (y-intercept of linear fit) ([1]; DOX 2 μg/mL at t=2, 4 or 6 h, HEK cells, N=191 assemblies): 1.2 h

CCCCCCCCCCCCCC(=O)O[C@@H]1[C@@H](C)[C@@]2(O)[C@@H](C=C(CO)C[C@]3(O)C(=O)C(C)=C[C@@H]23)[C@@H]2C(C)(C)[C@]12OC(C)=O [PMA, phorbol 12-myristate 13-acetate]
delay of eGFP onset relative to PMA addition (cFos promoter; PMA 1 μM at t=3, 6 or 9 h, neurons, extrapolated fit): 53 min | effect on cFos::eGFP-iPAK4 expression (cFos promoter; PMA 1 μM, neurons co-expressing CMV::iPAK4 and cFos::eGFP-iPAK4): bands of bright green fluorescence | y-intercept of linear fit of eGFP onset (cFos promoter; PMA at t=3, 6 or 9 h, neurons): ca. 1.0 h

JF525 [reference compound]
effective time constant of HT dye labeling [2]: 3.5 min | first-order reaction rate constant of HT dye labeling [2]: 48300 M⁻¹ s⁻¹

JFX608-HaloTag ligand
effective time constant of HT dye labeling [2]: 12 min | first-order reaction rate constant of HT dye labeling [2]: 2170 M⁻¹ s⁻¹
